Measurements taken from patent publication US9926282B2, “Phthalazinones and isoquinolinones as rock inhibitors” (BRISTOL-MYERS SQUIBB COMPANY, priority 2013, dated 2018).
Counter-ions that a name gives are not always drawn.

Experiments:
ROCK1 = ROCK1 (Homo sapiens (Human), UniProt Q13464); assay: ROCK assay (LABCHIP peptide phosphorylation), ROCK1; type: biochemical; conditions: 5 μM ATP, 1.5 μM peptide substrate; read-out: ROCK1 IC50
ROCK2 = ROCK2 (Homo sapiens (Human), UniProt O75116); assay: ROCK assay (LABCHIP peptide phosphorylation), ROCK2; type: biochemical; conditions: 5 μM ATP, 1.5 μM peptide substrate
ROCK2, sequence (O75116 whole entry, species assumed): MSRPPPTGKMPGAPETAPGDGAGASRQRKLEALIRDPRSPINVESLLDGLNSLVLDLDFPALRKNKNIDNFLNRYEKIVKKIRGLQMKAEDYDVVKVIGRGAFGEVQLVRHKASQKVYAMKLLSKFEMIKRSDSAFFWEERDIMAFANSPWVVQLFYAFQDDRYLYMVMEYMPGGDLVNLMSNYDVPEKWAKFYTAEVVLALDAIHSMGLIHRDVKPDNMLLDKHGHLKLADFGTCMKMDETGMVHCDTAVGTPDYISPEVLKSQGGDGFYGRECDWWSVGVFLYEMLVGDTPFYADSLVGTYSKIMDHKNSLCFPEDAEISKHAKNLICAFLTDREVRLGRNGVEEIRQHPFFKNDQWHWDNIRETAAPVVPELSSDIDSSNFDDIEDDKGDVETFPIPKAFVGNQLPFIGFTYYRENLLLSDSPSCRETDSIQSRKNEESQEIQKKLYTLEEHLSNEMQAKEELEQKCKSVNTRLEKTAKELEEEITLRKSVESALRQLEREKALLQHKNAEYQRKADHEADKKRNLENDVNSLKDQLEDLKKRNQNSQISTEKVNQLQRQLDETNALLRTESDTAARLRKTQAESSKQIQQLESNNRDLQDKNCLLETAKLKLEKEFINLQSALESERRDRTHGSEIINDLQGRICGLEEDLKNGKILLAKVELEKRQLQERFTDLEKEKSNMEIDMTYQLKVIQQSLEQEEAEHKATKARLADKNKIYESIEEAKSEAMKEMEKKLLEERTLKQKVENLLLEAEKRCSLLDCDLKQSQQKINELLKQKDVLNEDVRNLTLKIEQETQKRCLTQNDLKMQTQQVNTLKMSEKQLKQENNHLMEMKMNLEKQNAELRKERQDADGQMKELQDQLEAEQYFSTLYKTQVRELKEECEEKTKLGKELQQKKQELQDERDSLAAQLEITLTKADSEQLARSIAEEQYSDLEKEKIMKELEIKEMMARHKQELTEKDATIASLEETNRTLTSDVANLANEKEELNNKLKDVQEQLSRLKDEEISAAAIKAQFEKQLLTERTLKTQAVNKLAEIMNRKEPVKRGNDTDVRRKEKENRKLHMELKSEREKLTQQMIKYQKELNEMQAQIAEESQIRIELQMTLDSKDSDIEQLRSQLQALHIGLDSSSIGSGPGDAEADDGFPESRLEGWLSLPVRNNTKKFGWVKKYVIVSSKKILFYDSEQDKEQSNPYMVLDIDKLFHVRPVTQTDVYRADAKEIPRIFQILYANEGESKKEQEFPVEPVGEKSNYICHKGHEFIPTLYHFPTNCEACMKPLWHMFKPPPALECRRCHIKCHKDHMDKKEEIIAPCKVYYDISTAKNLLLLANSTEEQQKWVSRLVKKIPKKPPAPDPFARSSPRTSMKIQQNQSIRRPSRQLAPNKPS

ROCK1, sequence (Q13464 whole entry, species assumed): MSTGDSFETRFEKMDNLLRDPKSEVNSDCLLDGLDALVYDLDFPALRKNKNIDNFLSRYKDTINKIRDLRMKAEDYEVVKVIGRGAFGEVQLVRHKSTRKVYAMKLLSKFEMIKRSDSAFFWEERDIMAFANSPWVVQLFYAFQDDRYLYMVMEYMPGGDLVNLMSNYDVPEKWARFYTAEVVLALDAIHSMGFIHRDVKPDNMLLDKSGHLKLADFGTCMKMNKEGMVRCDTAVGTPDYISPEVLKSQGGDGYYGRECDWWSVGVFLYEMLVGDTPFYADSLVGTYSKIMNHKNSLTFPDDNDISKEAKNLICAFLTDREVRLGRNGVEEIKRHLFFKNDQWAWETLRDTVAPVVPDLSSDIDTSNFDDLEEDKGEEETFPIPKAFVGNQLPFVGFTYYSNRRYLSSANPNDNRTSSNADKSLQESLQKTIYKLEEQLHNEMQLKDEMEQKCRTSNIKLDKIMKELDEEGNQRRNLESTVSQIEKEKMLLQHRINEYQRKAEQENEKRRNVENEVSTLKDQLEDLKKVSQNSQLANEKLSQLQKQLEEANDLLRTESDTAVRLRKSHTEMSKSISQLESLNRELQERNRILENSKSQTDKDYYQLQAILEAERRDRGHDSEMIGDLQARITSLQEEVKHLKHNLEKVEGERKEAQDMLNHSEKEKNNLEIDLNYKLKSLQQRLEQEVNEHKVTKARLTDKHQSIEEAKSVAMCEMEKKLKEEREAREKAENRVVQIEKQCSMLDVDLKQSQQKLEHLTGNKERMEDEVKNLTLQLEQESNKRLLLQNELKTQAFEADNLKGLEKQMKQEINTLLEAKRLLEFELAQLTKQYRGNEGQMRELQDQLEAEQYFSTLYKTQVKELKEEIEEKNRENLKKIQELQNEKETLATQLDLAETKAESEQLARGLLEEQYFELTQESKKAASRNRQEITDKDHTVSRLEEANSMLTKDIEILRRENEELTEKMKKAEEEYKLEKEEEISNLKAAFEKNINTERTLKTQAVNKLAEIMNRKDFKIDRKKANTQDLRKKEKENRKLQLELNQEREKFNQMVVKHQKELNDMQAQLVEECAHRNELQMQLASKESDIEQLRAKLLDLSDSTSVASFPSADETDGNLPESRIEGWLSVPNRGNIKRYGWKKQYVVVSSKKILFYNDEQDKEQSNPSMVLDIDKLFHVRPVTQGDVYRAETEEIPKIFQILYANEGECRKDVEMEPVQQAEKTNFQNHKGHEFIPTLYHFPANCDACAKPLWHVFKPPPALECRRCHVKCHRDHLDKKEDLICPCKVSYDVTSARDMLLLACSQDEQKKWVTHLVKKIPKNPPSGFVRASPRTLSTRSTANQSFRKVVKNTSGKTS

| SMILES | IC50 (ROCK1) | IC50 (ROCK2) |
| --- | --- | --- |
| CC(C)(C)OC(=O)N1CC(Cn2nc(C(=O)Nc3ccc(-c4n[nH]c(=O)c5ccccc45)c(Cl)c3)c3ccccc32)C1 [Example 316, tert-butyl 3-[(3-{[3-chloro-4-(4-oxo-3,4-dihydrophthalazin-1-yl)phenyl]carbamoyl}-1H-indazol-1-yl)methyl] azetidine-1-carboxylate] | 101 to 1000 nM | 0.1 to 100 nM |
| O=C(Nc1ccc(-c2n[nH]c(=O)c3ccccc23)c(Cl)c1)c1cnc2ccccn12 [Example 317, N-[3-chloro-4-(4-oxo-3,4-dihydrophthalazin-1-yl)phenyl]imidazo[1,2-a] pyridine-3-carboxamide] | 0.1 to 100 nM | 0.1 to 100 nM |
| O=C(Nc1ccc(-c2n[nH]c(=O)c3ccccc23)c(Cl)c1)c1nn(CC2CCOCC2)c2ccccc12 [Example 318, N-[3-chloro-4-(4-oxo-3,4-dihydrophthalazin-1-yl)phenyl]-1-(oxan-4-ylmethyl)-1H-indazole-3-carboxamide] | 0.1 to 100 nM | 0.1 to 100 nM |
| O=C(Nc1ccc(-c2n[nH]c(=O)c3ccccc23)c(Cl)c1)c1nn(CC2CCOC2)c2ccccc12 (centres unmarked) [Example 319, N-[3-chloro-4-(4-oxo-3,4-dihydrophthalazin-1-yl)phenyl]-1-(oxolan-3-ylmethyl)-1H-indazole-3-carboxamide] | 0.1 to 100 nM | 0.1 to 100 nM |
| CC1(Cn2nc(C(=O)Nc3ccc(-c4n[nH]c(=O)c5ccccc45)c(Cl)c3)c3ccccc32)COC1 [Example 320, N-[3-chloro-4-(4-oxo-3,4-dihydrophthalazin-1-yl)phenyl]-1-[(3-methyloxetan-3-yl)methyl]-1H-indazole-3-carboxamide] | 0.1 to 100 nM | 0.1 to 100 nM |
| Cc1cc(NC(=O)c2nn(CC3CCN(CCCCO)CC3)c3ccccc23)ccc1-c1n[nH]c(=O)c2ccccc12 [Example 321, 1-((1-(4-Hydroxybutyl)piperidin-4-yl)methyl)-N-(3-methyl-4-(4-oxo-3,4-dihydrophthalazin-1-yl)phenyl)-1H-indazole-3-carboxamide] | 0.1 to 100 nM | 101 to 1000 nM |
| O=C(Nc1ccc(-c2n[nH]c(=O)c3ccccc23)cc1)c1nn(CC2CCN(CCCCO)CC2)c2ccccc12 [Example 322, 1-((1-(4-Hydroxybutyl)piperidin-4-yl)methyl)-N-(4-(4-oxo-3,4-dihydrophthalazin-1-yl)phenyl)-1H-indazole-3-carboxamide] | 0.1 to 100 nM | 101 to 1000 nM |
| COc1ccc2c(=O)[nH]cc(-c3ccc(NC(=O)N4CCc5ccccc54)cc3C)c2c1 [Example 323, N-(4-(6-Methoxy-1-oxo-1,2-dihydroisoquinolin-4-yl)-3-methylphenyl)indoline-1-carboxamide] | 0.1 to 100 nM | 0.1 to 100 nM |
| Cc1cc(NC(=O)N2CCc3ccccc32)ccc1-c1n[nH]c(=O)c2ccccc12 [Example 324, N-(3-Methyl-4-(4-oxo-3,4-dihydrophthalazin-1-yl)phenyl)indoline-1-carboxamide] | 0.1 to 100 nM | 0.1 to 100 nM |
| Cc1cc(NC(=O)c2cnn3cc(OCCN4CCCC4)ccc23)ccc1-c1n[nH]c(=O)c2ccccc12 [Example 325, N-[3-methyl-4-(4-oxo-3,4-dihydrophthalazin-1-yl)phenyl]-6-[2-(pyrrolidin-1-yl)ethoxy] pyrazolo[1,5-a]pyridine-3-carboxamide] | 101 to 1000 nM | 0.1 to 100 nM |
| Cc1cc(NC(=O)c2nn(CC3CNC3)c3ccccc23)ccc1-c1n[nH]c(=O)c2ccccc12 [Example 326, 1-(Azetidin-3-ylmethyl)-N-(3-methyl-4-(4-oxo-3,4-dihydrophthalazin-1-yl)phenyl)-1H-indazole-3-carboxamide, TFA] | 0.1 to 100 nM | 101 to 1000 nM |
| O=C(O)Cn1nc(C(=O)Nc2ccc(-c3n[nH]c(=O)c4ccccc34)cc2)c2ccccc21 [Example 328, 2-(3-{[4-(4-Oxo-3,4-dihydrophthalazin-1-yl)phenyl]carbamoyl}-1H-indazol-1-yl)acetic Acid] | 101 to 1000 nM | 0.1 to 100 nM |
| CC(=O)N1CC(Cn2nc(C(=O)Nc3ccc(-c4n[nH]c(=O)c5ccccc45)c(Cl)c3)c3ccccc32)C1 [Example 329, 1-((1-Acetylazetidin-3-yl)methyl)-N-(3-chloro-4-(4-oxo-3,4-dihydrophthalazin-1-yl)phenyl)-1H-indazole-3-carboxamide] | 0.1 to 100 nM | 0.1 to 100 nM |
| Cc1cc(NC(=O)c2nn(CC3CN(C)C3)c3ccccc23)ccc1-c1n[nH]c(=O)c2ccccc12 [Example 330, N-(3-Methyl-4-(4-oxo-3,4-dihydrophthalazin-1-yl)phenyl)-1-((1-methylazetidin-3-yl)methyl)-1H-indazole-3-carboxamide] | 0.1 to 100 nM | 101 to 1000 nM |
| O=C(O)CCn1nc(C(=O)Nc2ccc(-c3n[nH]c(=O)c4ccccc34)cc2)c2ccccc21 [Example 331, 3-(3-((4-(4-Pxo-3,4-dihydrophthalazin-1-yl)phenyl)carbamoyl)-1H-indazol-1-yl)propanoic acid] | 101 to 1000 nM | 0.1 to 100 nM |
| COC(=O)CCn1nc(C(=O)Nc2ccc(-c3n[nH]c(=O)c4ccccc34)cc2)c2ccccc21 [Example 332, Methyl 3-(3-((4-(4-oxo-3,4-dihydrophthalazin-1-yl)phenyl)carbamoyl)-1H-indazol-1-yl)propanoate] | 0.1 to 100 nM | 0.1 to 100 nM |
| CC(C)(O)CCn1nc(C(=O)Nc2ccc(-c3n[nH]c(=O)c4ccccc34)cc2)c2ccccc21 [Example 333, 1-(3-Hydroxy-3-methylbutyl)-N-(4-(4-oxo-3,4-dihydrophthalazin-1-yl)phenyl)-1H-indazole-3-carboxamide] | 0.1 to 100 nM | 0.1 to 100 nM |
| CC(C)(O)CNC(=O)Cn1nc(C(=O)Nc2ccc(-c3n[nH]c(=O)c4ccccc34)cc2)c2ccccc21 [Example 334, 1-(2-((2-Hydroxy-2-methylpropyl)amino)-2-oxoethyl)-N-(4-(4-oxo-3,4-dihydrophthalazin-1-yl)phenyl)-1H-indazole-3-carboxamide] | 0.1 to 100 nM | 0.1 to 100 nM |
| O=C(Cn1nc(C(=O)Nc2ccc(-c3n[nH]c(=O)c4ccccc34)cc2)c2ccccc21)NCC1(O)CCC1 [Example 335, 1-(2-(((1-Hydroxycyclobutyl)methyl)amino)-2-oxoethyl)-N-(4-(4-oxo-3,4-dihydrophthalazin-1-yl)phenyl)-1H-indazole-3-carboxamide] | 0.1 to 100 nM | 0.1 to 100 nM |
| CC(C)(O)CNC(=O)CCn1nc(C(=O)Nc2ccc(-c3n[nH]c(=O)c4ccccc34)cc2)c2ccccc21 [Example 336, 1-(3-((2-Hydroxy-2-methylpropyl)amino)-3-oxopropyl)-N-(4-(4-oxo-3,4-dihydrophthalazin-1-yl)phenyl)-1H-indazole-3-carboxamide] | 0.1 to 100 nM | 0.1 to 100 nM |
| O=C(Nc1ccc(-c2n[nH]c(=O)c3ccccc23)cc1)c1nn(CCC(=O)N2CCOCC2)c2ccccc12 [Example 337, 1-(3-Morpholino-3-oxopropyl)-N-(4-(4-oxo-3,4-dihydrophthalazin-1-yl)phenyl)-1H-indazole-3-carboxamide] | 0.1 to 100 nM | 0.1 to 100 nM |
| O=C(Nc1ccc(-c2n[nH]c(=O)c3ccccc23)cc1)c1nn(CC2CNC2)c2ccccc12 [Example 338, 1-(Azetidin-3-ylmethyl)-N-(4-(4-oxo-3,4-dihydrophthalazin-1-yl)phenyl)-1H-indazole-3-carboxamide] | 0.1 to 100 nM | 101 to 1000 nM |
